From patent US8114885B2, “Chemical compounds” (GlaxoSmithKline LLC, priority 2000, dated 2012)

What follows are compounds tested on HUVEC (assay: Human Umbilical Vein Endothelial Cell (HUVEC) proliferation assay (BrdU incorporation)). Conditions: VEGF-stimulated HUVEC, 72 hrs, read-out: Inhibition of HUVEC proliferation IC50.
Format: cell-based
Method: Human Umbilical Vein Endothelial Cell (HUVEC) Proliferation Assay (BrdU Incorporation) Materials
HUVEC cells and EGM-MV (Endothelial cell growth medium—microvascular) were purchased from Clonetics (San Diego, Calif.). VEGF and bFGF were purchased from R&D Systems (Minneapolis, Minn.). Anti-BrdU antibody was obtained from Chemicon International (Temecula, Calif.).
HUVECs were routinely maintained in EGM-MV medium and were used within passage 7. HUVECs were plated at a density of 2500 cells/well in M199 medium containing 5% FBS (Hyclone) in type I collagen coated plate (Becton Dickinson). The plate was incubated at 37° C. overnight. The medium was removed by aspiration, and test compounds were added to each well in a volume of 0.1 ml/well in serum-free M199 medium. Compound concentrations ranged from 1.5 nM to 30 micromolar. The plate was incubated for 30 min at 37° C. Another 0.1 ml of serum-free M199 medium containing BSA and VEGF (or bFGF) was added to give a final concentration of 0.1% BSA and 10 ng/ml VEGF (0.3 ng/ml bFGF). The plate was incubated at 37° C. for 72 hrs. BrdU was added to each well after the first 48 hrs to give a concentration of 10 micromolar. The calorimetric ELISA assay was performed according to manufacturer's (Roche Molecular Sciences) instructions, with detection by absorbance reading at 450 nm. Results were plotted as concentration of test compound vs. absorbance to give an IC50 value for inhibition of BrdU incorporation.

SMILES | IC50 [nM]
Cc1n[nH]c2cc(N(C)c3ccnc(Nc4cccc([S+](C)[O-])c4)n3)ccc12 (centres unmarked) [Example 66, N^4-methyl-N^4-(3-methyl-1H-indazol-6-yl)-N^2-[3-(methylsulfinyl)phenyl]-2,4-pyrimidinediamine] | 1 to 200
Cc1n[nH]c2cc(N(C)c3ccnc(Nc4cc(S(C)(=O)=O)ccc4F)n3)ccc12 [Example 67, N^2-[2-fluoro-5-(methylsulfonyl)phenyl]-N^4-methyl-N^4-(3-methyl-1H-indazol-6-yl)-2,4-pyrimidinediamine] | 201 to 500
COc1ccc(S(C)(=O)=O)cc1Nc1nccc(N(C)c2ccc3c(C)n[nH]c3c2)n1 [Example 68, N^2-[2-methoxy-5-(methylsulfonyl)phenyl]-N^4-methyl-N^4-(3-methyl-1H-indazol-6-yl)-2,4-pyrimidinediamine] | 1 to 200
Cc1ccc(Nc2nccc(N(C)c3ccc4c(C)n(C)nc4c3)n2)cc1S(N)(=O)=O [Example 69, 5-({4-[(2,3-dimethyl-2H-indazol-6-yl)(methyl)amino]pyrimidin-2-yl}amino)-2-methylbenzenesulfonamide] | 1 to 200
Cc1c2ccc(N(C)c3ccnc(Nc4cccc(S(N)(=O)=O)c4)n3)cc2nn1C [Example 70, 3-({4-[(2,3-dimethyl-2H-indazol-6-yl)(methyl)amino]pyrimidin-2-yl}amino)benzenesulfonamide] | 1 to 200
Cc1c2ccc(N(C)c3ccnc(Nc4ccc(CCS(N)(=O)=O)cc4)n3)cc2nn1C [Example 71, 2-[4-({4-[(2,3-dimethyl-2H-indazol-6-yl)(methyl)amino]pyrimidin-2-yl}amino)phenyl]ethanesulfonamide] | 1 to 200
Cc1c2ccc(N(C)c3ccnc(Nc4ccc(CS(C)(=O)=O)cc4)n3)cc2nn1C [Example 72, N^4-(2,3-dimethyl-2H-indazol-6-yl)-N^4-methyl-N^2-{4-[(methylsulfonyl)methyl]phenyl}pyrimidine-2,4-diamine] | 1 to 200
CN(c1ccc2c(CO)n(C)nc2c1)c1ccnc(Nc2cccc(S(N)(=O)=O)c2)n1 [Example 73, 3-({4-[[3-(hydroxymethyl)-2-methyl-2H-indazol-6-yl](methyl)amino]pyrimidin-2-yl}amino)benzenesulfonamide] | 1 to 200
Cc1nc2cc(N(C)c3ccnc(Nc4cccc(S(N)(=O)=O)c4)n3)ccc2n1C [Example 74, 3-({4-[(1,2-dimethyl-1H-benzimidazol-5-yl)(methyl)amino]pyrimidin-2-yl}amino)benzenesulfonamide] | 1 to 200
CN(c1ccc2c(c1)nc(Cc1ccccc1)n2C)c1ccnc(Nc2cccc(S(N)(=O)=O)c2)n1 [Example 75, 3-({4-[(2-benzyl-1-methyl-1H-benzimidazol-5-yl)(methyl)amino]pyrimidin-2-yl}amino)benzenesulfonamide] | 1 to 200
CCn1nc2cc(N(C)c3ccnc(Nc4cccc(S(N)(=O)=O)c4)n3)ccc2c1C [Example 76, 3-({4-[(2-ethyl-3-methyl-2H-indazol-6-yl)(methyl)amino]pyrimidin-2-yl}amino)benzenesulfonamide] | 1 to 200
Cc1c2ccc(N(C)c3ccnc(Nc4cccc(S(N)(=O)=O)c4)n3)cc2nn1Cc1cccc(Cl)c1 [Example 77, 3-({4-[[2-(3-chlorobenzyl)-3-methyl-2H-indazol-6-yl](methyl)amino]pyrimidin-2-yl}amino)benzenesulfonamide] | 1 to 200
Cc1c2ccc(N(C)c3ncnc(Nc4cccc(S(N)(=O)=O)c4)n3)cc2nn1C [Example 78, 3-({4-[(2,3-dimethyl-2H-indazol-6-yl)(methyl)amino]-1,3,5-triazin-2-yl}amino)benzenesulfonamide] | 1 to 200
Cc1ccc(Nc2ncnc(N(C)c3ccc4c(C)n(C)nc4c3)n2)cc1S(N)(=O)=O [Example 79, 5-({4-[(2,3-dimethyl-2H-indazol-6-yl)(methyl)amino]-1,3,5-triazin-2-yl}amino)-2-methylbenzenesulfonamide] | 201 to 500
